In brackets after ≈: the same amount, converted by molar mass. Non-standard residues stand in square brackets, D forms with d. Residues, ends and D or L forms follow the SMILES beside them. ξ: configuration not given here. Pro(3ξ,4ξ-(CH2)4) = O=C(O)[C@H]1NCC2CCCCC21; Tic = O=C(O)[C@@H]1Cc2ccccc2CN1

In one assay the test system is Mycolicibacterium fortuitum. Kind of assay: Antibacterial activity against Mycobacterium ranae. The format is functional.
In the case of `CC(=O)N[C@@H](Cc1ccccc1)C(=O)N1Cc2ccccc2C[C@H]1C(=O)N1CC2CCCCC2[C@H]1C(=O)N[C@@H](CCCCN)C(=O)N1Cc2ccccc2C[C@H]1C(=O)N1CC2CCCCC2[C@H]1C(=O)N[C@@H](Cc1ccccc1)C(=O)N1Cc2ccccc2C[C@H]1C(=O)N1CC2CCCCC2[C@H]1C(=O)N[C@@H](CCCCN)C(=O)N1Cc2ccccc2C[C@H]1C(=O)N[C@@H](CCCCN)C(=O)N[C@@H](CCCCN)C(=O)N[C@@H](CCCCN)C(=O)N[C@@H](CCCCN)C(N)=O` (some centres not stated) (Ac-F[Tic][Pro(3ξ,4ξ-(CH2)4)]K[Tic][Pro(3ξ,4ξ-(CH2)4)]F[Tic][Pro(3ξ,4ξ-(CH2)4)]K[Tic]KKKK-NH2), the MIC (usually the least concentration at which growth counts as inhibited) worked out at 30 µM (≈ 66.4 µg/mL).
Same read-out and setting: then `CC(=O)NCC(=O)N[C@@H](Cc1ccccc1)C(=O)NCC(=O)N1CC2CCCCC2[C@H]1C(=O)NCC(=O)N[C@@H](CCCCN)C(=O)NCC(=O)N1CC2CCCCC2[C@H]1C(=O)NCC(=O)N[C@@H](Cc1ccccc1)C(=O)NCC(=O)N1CC2CCCCC2[C@H]1C(=O)NCC(=O)N[C@@H](CCCCN)C(=O)NCC(=O)N[C@@H](CCCCN)C(=O)N[C@@H](CCCCN)C(=O)N[C@@H](CCCCN)C(=O)N[C@@H](CCCCN)C(N)=O` (some centres not stated) (Ac-GFG[Pro(3ξ,4ξ-(CH2)4)]GKG[Pro(3ξ,4ξ-(CH2)4)]GFG[Pro(3ξ,4ξ-(CH2)4)]GKGKKKK-NH2), with 100 µM (≈ 203 µg/mL).
The same measure, in the same setting: then `CC(=O)NCC(=O)N[C@@H](Cc1ccccc1)C(=O)N1CC2CCCCC2[C@H]1C(=O)NCC(=O)N[C@@H](CCCCN)C(=O)N1CC2CCCCC2[C@H]1C(=O)NCC(=O)N[C@@H](Cc1ccccc1)C(=O)N1CC2CCCCC2[C@H]1C(=O)NCC(=O)N[C@@H](CCCCN)C(=O)N[C@@H](CCCCN)C(=O)N[C@@H](CCCCN)C(=O)N[C@@H](CCCCN)C(=O)N[C@@H](CCCCN)C(N)=O` (some centres not stated) (Ac-GF[Pro(3ξ,4ξ-(CH2)4)]GK[Pro(3ξ,4ξ-(CH2)4)]GF[Pro(3ξ,4ξ-(CH2)4)]GKKKKK-NH2), with 100 µM (≈ 180 µg/mL); and `CC(=O)NCC(=O)N[C@@H](Cc1ccccc1)C(=O)N1Cc2ccccc2C[C@H]1C(=O)NCC(=O)NCC(=O)N[C@@H](CCCCN)C(=O)N1Cc2ccccc2C[C@H]1C(=O)NCC(=O)NCC(=O)N[C@@H](Cc1ccccc1)C(=O)N1Cc2ccccc2C[C@H]1C(=O)NCC(=O)NCC(=O)N[C@@H](CCCCN)C(=O)N1Cc2ccccc2C[C@H]1C(=O)N[C@@H](CCCCN)C(=O)N[C@@H](CCCCN)C(=O)N[C@@H](CCCCN)C(=O)N[C@@H](CCCCN)C(N)=O` (Ac-GF[Tic]GGK[Tic]GGF[Tic]GGK[Tic]KKKK-NH2), with 30 µM (≈ 64.8 µg/mL).
The same measure, in the same setting: then `CC(=O)NCC(=O)N[C@@H](Cc1ccccc1)C(=O)N1Cc2ccccc2C[C@H]1C(=O)NCC(=O)N[C@@H](CCCCN)C(=O)N1Cc2ccccc2C[C@H]1C(=O)NCC(=O)N[C@@H](Cc1ccccc1)C(=O)N1Cc2ccccc2C[C@H]1C(=O)NCC(=O)N[C@@H](CCCCN)C(=O)N1Cc2ccccc2C[C@H]1C(=O)N[C@@H](CCCCN)C(=O)N[C@@H](CCCCN)C(=O)N[C@@H](CCCCN)C(=O)N[C@@H](CCCCN)C(N)=O` (Ac-GF[Tic]GK[Tic]GF[Tic]GK[Tic]KKKK-NH2), with 30 µM (≈ 59.6 µg/mL).

A further assay has as its system Staphylococcus aureus. Kind of assay: Antibacterial activity against Staphylococcus aureus. The format is functional.
In turn, `CC(=O)N[C@@H](Cc1ccccc1)C(=O)N1Cc2ccccc2C[C@H]1C(=O)N1CC2CCCCC2[C@H]1C(=O)N[C@@H](CCCCN)C(=O)N1Cc2ccccc2C[C@H]1C(=O)N1CC2CCCCC2[C@H]1C(=O)N[C@@H](Cc1ccccc1)C(=O)N1Cc2ccccc2C[C@H]1C(=O)N1CC2CCCCC2[C@H]1C(=O)N[C@@H](CCCCN)C(=O)N1Cc2ccccc2C[C@H]1C(=O)N[C@@H](CCCCN)C(=O)N[C@@H](CCCCN)C(=O)N[C@@H](CCCCN)C(=O)N[C@@H](CCCCN)C(N)=O` (some centres not stated) (Ac-F[Tic][Pro(3ξ,4ξ-(CH2)4)]K[Tic][Pro(3ξ,4ξ-(CH2)4)]F[Tic][Pro(3ξ,4ξ-(CH2)4)]K[Tic]KKKK-NH2) displayed an MIC of 3 µM (≈ 6.64 µg/mL).
On the same count and under the same terms, then `CC(C)C[C@H](NC(=O)CNC(=O)[C@H](CCCCN)NC(=O)CN)C(=O)N1Cc2ccccc2C[C@H]1C(=O)N1CC2CCCCC2[C@H]1C(=O)NCC(=O)N[C@@H](CCCCN)C(=O)N1Cc2ccccc2C[C@H]1C(=O)N1CC2CCCCC2[C@H]1C(=O)NCC(=O)N[C@@H](Cc1ccccc1)C(=O)N1Cc2ccccc2C[C@H]1C(=O)N1CC2CCCCC2[C@H]1C(=O)NCC(=O)N[C@@H](CCCCN)C(=O)N1Cc2ccccc2C[C@H]1C(=O)N1CC2CCCCC2[C@H]1C(=O)NCC(=O)N[C@@H](Cc1ccccc1)C(=O)N1Cc2ccccc2C[C@H]1C(=O)N1CC2CCCCC2[C@H]1C(=O)NCC(=O)N[C@@H](CCCCN)C(=O)N1Cc2ccccc2C[C@H]1C(=O)N1CC2CCCCC2[C@H]1C(=O)NCC(=O)N[C@@H](CCCCN)C(=O)N[C@@H](CCCNC(=N)N)C(N)=O` (some centres not stated) (H-GKGL[Tic][Pro(3ξ,4ξ-(CH2)4)]GK[Tic][Pro(3ξ,4ξ-(CH2)4)]GF[Tic][Pro(3ξ,4ξ-(CH2)4)]GK[Tic][Pro(3ξ,4ξ-(CH2)4)]GF[Tic][Pro(3ξ,4ξ-(CH2)4)]GK[Tic][Pro(3ξ,4ξ-(CH2)4)]GKR-NH2), with 10 µM (≈ 35.4 µg/mL).
